Data as given in patent publication US20090130229A1, “Antitumor uses of compound” (Cell Therapeutics, Inc., priority 2002, published 2009).

Tested on: PDGF-R
Experiment: PDGF-R autophosphorylation and expression in whole cells (2N5A, Swiss 3T3)
Type: cell-based, mouse
Experimental: FIG. 5. Inhibition of PDGF-R autophosphorylation and expression in whole cells by Cpd 1. A): 2N5A cells (NIH3T3 transformed by the COL1A1/PDGFB rearrangement generating autocrine stimulation of PDGF-R) were treated with Cpd 1 at the indicated concentrations, for 72 h. Cell extracts were immunoprecipitated with anti-PDGF-R and subjected to Western blotting with anti-pTyr or anti-PDGF-R antibodies. B): Swiss 3T3 cells were serum starved for 24 h and then treated with Cpd1 at the indicated concentrations, for 18 h. After stimulation with 1 nM PDGF for 5 min, whole cell lysates were prepared and subjected to Western blotting with anti-pTyr or anti-PDGF-R. Protein loading by anti-actin blot is shown.
The following human medullary thyroid carcinoma (MTC) cell lines were used in this study. The TT cell line derived from a MEN2A-associated MTC characterized by expression of the RET oncogene carrying the mutation C634W. The MZ-CRC-1 cell line derived from MEN2B-associated MTC characterized by expression of the RET oncogene carrying the mutation M918T. TT cells were cultivated in Ham's F12 medium (BioWhittaker, Verviers, Belgium) supplemented with 15% fetal calf serum (FCS) (Life Technologies, Inc., Gaithersburg, Md.) whereas MZ-CRC-1 cells were grown in Dulbecco's modified Eagle's medium (DMEM) (BioWhittaker) supplemented with 10% FCS. The human papillary thyroid carcinoma cell line TPC-1 which was used as a model of Met overexpression, was routinely cultivated in DMEM with 10% FCS. N592 cells, derived from a human SCLC, were characterized by Kit activation through autocrine stimulation by the SCF ligand. N592 cells were cultured in RPMI 1640 supplemented with 10% FCS. The mouse SWISS3T3 and NIH3T3 fibroblasts were cultured in DMEM with 10% calf serum (Colorado Serum Company, Denver, Colo.). In addition, NIH3T3 cells transfected with different oncogenes were used. NIH3T3^MEN2A transfectants express the short isoform of the RET-MEN2A (C634R) oncogene; NIH3T3^KITΔ559 cells express KIT carrying the activating mutation Δ559 found in GISTs; NIH3T3^FGFR3(Y373C) express the FGF-R3 gene carrying the activating mutation Y373C found in a human multiple myeloma cell line. 2N5A cells are NIH3T3 cells-transformed by the COL1A1/PDGFB rearrangement generating autocrine stimulation of PDGF-R. All NIH3T3 transfectants were maintained in DMEM plus 5% calf serum in a 10% CO2 atmosphere.
For whole-cell extract preparation, cells were lysed in sodium dodecyl sulfate (SDS) sample buffer (62.5 mM Tris-HCl (pH 6.8), 2% SDS) with 1 mM PMSF, 10 μg/ml pepstatin, 12.5 μg/ml leupeptin, 100 KIU aprotinin, 1 mM sodium orthovanadate, 1 mM sodium molybdate. Protein concentration was determined in appropriately diluted aliquots by the bicinchionic acid (BCA) method (Pierce, Rockford, Ill.), then samples were adjusted to a final concentration of 10% glycerol, 5% β-mercaptoethanol, 0.001% bromophenol blue.
For immunoprecipitation experiments, cells were treated with Cpd1 or solvent for the indicated times. Cell monolayers were rinsed twice with cold phosphate-buffered saline plus 0.1 mM sodium orthovanadate and then left for 20 min on ice in lysis buffer (50 mM HEPES pH7.6, 150 mM NaCl, 10% glycerol, 1% Triton X-100, 1.5 mM MgCl2, 1 mM EGTA, 100 mM NaF, 10 mM sodium pyrophosphate, 10 μg/ml antipain, 20 μg/ml chymostatin, 10 μg/ml E64, 1 mg/ml pefabloc SC). […] Protein concentration was determined by the BCA reagent (Pierce). […]

`COc1cc2c(cc1OC)/C(=C\c1ccc(O)cc1)C(=O)N2` [Cpd 1, (E)-1,3-dihydro-5,6-dimethoxy-3-[(4-hydroxyphenyl)methylene]-2H-indol-2-one] was tested, and the PDGF-R tyrosine phosphorylation (2N5A cells (autocrine stimulation), 72 h) was “dose-dependent drug-induced inhibition”, the PDGF-R expression (2N5A cells, 72 h) was “dose-dependent drug-induced inhibition” and the PDGF-R tyrosine phosphorylation (Swiss 3T3 cells serum starved, 18 h, 1 nM PDGF 5 min) was “dose-dependent drug-induced inhibition”. The PDGF-R expression (Swiss3T3 cells, 18 h) was “dose-dependent drug-induced inhibition” and the “Concentration causing full inhibition of PDGF-R phosphorylation” value (whole cells (FIG. 5)) was “higher than 15 μM”.
